Here are results for 1 compound from patent publication US20030143645A1, “Quinone reductase 2 and aldehyde dehydrogenase as therapeutic targets” (priority 2001, published 2003).

One assay concerns the target T1, QR2 (Homo sapiens, UniProt P16083).
T1 sequence (P16083 1-231): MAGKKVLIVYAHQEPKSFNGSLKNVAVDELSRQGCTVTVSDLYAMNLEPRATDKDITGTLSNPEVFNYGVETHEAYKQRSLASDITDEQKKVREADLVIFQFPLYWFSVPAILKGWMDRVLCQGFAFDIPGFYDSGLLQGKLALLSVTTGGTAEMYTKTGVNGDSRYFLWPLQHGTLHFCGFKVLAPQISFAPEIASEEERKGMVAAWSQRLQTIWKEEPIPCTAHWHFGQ
The assay can be described thus: QR2 activity assay with recombinant QR2 (Example 2). Also on record: GST (N, cleaved yes); made in house; E. coli only by inference. As to conditions: recombinant QR2; 50 μM NMeH, 5-30 μM menadione; read-out: QR2 K1 (μM) ± SEM. It is filed as biochemical. The procedure: Cloning of human QR2. Human QR2 was PCR amplified from human liver cDNA (Clontech) with the following primers: 5′[…]-3′ and 5′-[…]-3′ and cloned into the pGEX-4T-2 GST expression vector (Pharmacia). GST-tagged QR2 was purified and the GST tag removed according to the manufacturers instructions.
(§1) ALDH1, QR2 and QR1 activity assays. […] Reaction products were separated with a gradient of acetonitrile in 10 mM triethylamine acetic acid. […] QR1 IC50 values were calculated using GraphPad Prism.

In another assay the target is T2, ALDH1 (Homo sapiens, UniProt P00352).
T2 construct: Purification of native ALDH1, QR2 and QR1; RBC extract was prepared as described above and applied to PQ-Sepharose; tissue Valley Biomedical (blood); host or cells: human red blood cells
T2 sequence (P00352 1-501): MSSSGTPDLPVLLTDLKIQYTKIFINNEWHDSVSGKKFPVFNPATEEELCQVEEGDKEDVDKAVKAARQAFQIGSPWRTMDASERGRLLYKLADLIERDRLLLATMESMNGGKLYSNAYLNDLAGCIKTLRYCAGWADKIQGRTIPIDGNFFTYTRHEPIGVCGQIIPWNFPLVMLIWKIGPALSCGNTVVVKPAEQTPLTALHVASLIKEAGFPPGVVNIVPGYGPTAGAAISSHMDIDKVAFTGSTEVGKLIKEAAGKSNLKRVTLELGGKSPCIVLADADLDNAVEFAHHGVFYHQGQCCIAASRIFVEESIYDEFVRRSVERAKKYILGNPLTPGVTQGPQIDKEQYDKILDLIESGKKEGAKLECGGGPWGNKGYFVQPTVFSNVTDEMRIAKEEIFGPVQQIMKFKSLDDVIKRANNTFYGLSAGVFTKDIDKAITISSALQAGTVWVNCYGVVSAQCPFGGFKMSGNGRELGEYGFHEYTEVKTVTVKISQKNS
The assay can be described thus: hALDH1 HPLC-based activity assay (Example 1). It is filed as biochemical. Here is the method:
ATP-affinity array chromatography. In whole mouse experiments, the animal (except for its tail, feet, skin and intestines) was frozen in liquid N2 and blended in buffer A containing 50 mM Hepes, pH 7.5, 50 mM NaCl, 10 mM MgCl2, 0.1% NONIDET- P40, 1 mM dithiothreitol, 1 μg/ml leupeptin, 100 μg/ml pefabloc and 10 μg/ml aprotinin. Mouse lysate was clarified by centrifugation for 1 hr at 100,000×g. For infected and non-infected RBC's˜1.5×10^9 cells were mixed with an equal volume of 2×buffer A, rocked for 30 min at 4° C., and clarified by centrifugation for 1 hr at 100,000×g. Supernatants were dialyzed overnight against 50 mM Hepes, pH 7.5, 50 mM NaCl, 10 mM MgCl2 and 1 mM dithiothreitol. […] Proteins were resolved by 12% SDS-PAGE and visualized by staining either with Coomassie brilliant Blue R-250 or silver nitrate. Alternatively, proteins were transferred to membrane GeneMate (Kaysville, Utah) in transfer buffer (25 mM Tris, 200 mM glycine, 20% methanol, and 0.01% SDS) for mixed peptide sequencing (Damer et al, J. Biol. Chem. 273:24396 (1998)). hALDH 1 and hQR2 purification and activity assays. Fresh human red blood cells (RBC) were obtained from Valley Biomedical, washed twice with PBS, and lysed in buffer B (0.1% Triton X, 50 mM Tris pH 7.5, 125 mM NaCl, 1 μg/mL aprotonin, 1 μg/mL pepstatin and 10 μg/mL PEFABLOC). […]
Values for hALDH1 were determined by HPLC assay. […]

For a further assay, the target named is QR1 (Oryctolagus cuniculus, UniProt U3KNP2). Put plainly: QR1 activity assay (Example 2). It is filed as biochemical, rabbit. Also on record: QR1 was purified from rabbit liver as previously described; from tissue; host or cells: rabbit liver. Here is the method:
Purification of native ALDH1, QR2 and QR1. RBC extract was prepared as described above and applied to PQ-Sepharose equilibrated in buffer A. ALDH1 and QR2 were obtained by eluting the column with 5 mM b-NAD^+ and NMeH respectively.
as §1

Chain of QR1 (U3KNP2 1-274): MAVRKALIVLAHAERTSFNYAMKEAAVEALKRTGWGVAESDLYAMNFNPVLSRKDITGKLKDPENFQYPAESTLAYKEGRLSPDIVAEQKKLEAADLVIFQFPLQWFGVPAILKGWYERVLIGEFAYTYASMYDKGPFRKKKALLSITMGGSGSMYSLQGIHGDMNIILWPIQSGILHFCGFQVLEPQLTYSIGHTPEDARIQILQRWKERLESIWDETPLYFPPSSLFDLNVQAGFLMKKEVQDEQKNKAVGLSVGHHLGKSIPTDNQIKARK

Consider `CCN(CC)CCCC(C)Nc1ccnc2cc(Cl)ccc12` (centres unmarked) [CQ, chloroquine], for which, at QR2, the Ki turned out to be 0.61 ± 0.1 µM. This compound gave an ALDH activity on ALDH1 (0.5 mM CQ, ALDH alone 48.42 ± 9.3 pmol) of 26.62 ± 6.1 pmol. The “inhibition of hALDH1 activity” value at ALDH1 (in the presence of physiological [NADH]) is reported as “relatively weak inhibitor”. Moreover, on QR1, the IC50 is above 1000 µM and the “effect on QR1 activity” value is recorded as “not affected”.

The IC50 is the midpoint of a concentration-inhibition curve. A low value points to higher potency.
